Assay results published in ChEMBL document CHEMBL3244408, “Synthesis and analgetic activity of some benzomorphan analogues” (1978).

test system: Mus musculus; test: Analgetic activity in sc dosed albino DD mouse by tail pressure stimuli method; type: functional

| SMILES | ED50 [mg/kg] |
| --- | --- |
| Br.CN1CC2CC1Cc1ccc(O)cc12 (stereo unspecified) | 43 |
| CC(O)C(=O)O.CN1CC2Cc3ccc(O)cc3C1C2 (stereo unspecified) | 29.1 |
| CN1CCC2Cc3ccc(O)cc3C1C2 (stereo unspecified) | 17.2 |
| CN1CCCC2Cc3ccc(O)cc3C1C2.Cl.O (stereo unspecified) | 15 |
| Br.CN1CCCC2(C)CC1Cc1ccc(O)cc12 (stereo unspecified) | 4.1 |
| Br.C[C@@H]1C2Cc3ccc(O)cc3C1(C)CCN(C)C2 (stereo partly specified) | 1 |
| Br.CN1CCC2Cc3ccc(O)cc3C(C2)C1 (stereo unspecified) | 38.8 |
| Br.CN1CC2Cc3ccc(O)cc3C(C)(C2)C1 (stereo unspecified) | 8.4 |
| CC1NCC2Cc3ccc(O)cc3C1C2 (stereo unspecified) | 4.5 |
| COc1ccc2c3c1O[C@H]1[C@@H](O)C=C[C@H]4[C@@H](C2)N(C)CC[C@@]341.COc1ccc2c3c1O[C@H]1[C@@H](O)C=C[C@H]4[C@@H](C2)N(C)CC[C@@]341.O.O=P(O)(O)O.O=P(O)(O)O [CODEINE PHOSPHATE] | 9.2 |
| CN1CC[C@]23c4c5ccc(O)c4O[C@H]2[C@@H](O)C=C[C@H]3[C@H]1C5.Cl [MORPHINE HYDROCHLORIDE] | 1.2 |
